Where a name gives a salt, the structure may show the parent alone. Read-outs that look alike come from different tables or passages of the source.
Target: T1, GAβ-dependent amyloid fibril formation (Human Aβ1-40 + GM1-containing liposome) (Homo sapiens, UniProt P05067)
T1 construct: Human Aβ1-40 (cat. #4307-v, prepared by Peptide Institute); purchased Peptide Institute 4307-v
Test: Thioflavin T (ThT) assay of GAβ-dependent amyloid fibril formation (Aβ1-40 with GM1-containing liposome)
Format: biochemical
Method in brief: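 Human Aβ1-40 (75 μM stock) pre-incubated 10 min at room temperature with compound (75 or 15 μM solution), then GM1-containing cholesterol/sphingomyelin liposome added and incubated 37° C, 18 hours. Fibrils quantified by ThT fluorescence (ex 430/em 490 nm, pH 8.5 glycine buffer); inhibition as ratio to compound-free control.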

[1] = inhibition rate against amyloid fibril formation, final concentration of the compound 25 μM, read-out: Inhibitory activity ABC evaluation
[2] = @25 μM, read-out: ThT Inhibitory activity (% inhibition)
[3] = read-out: ThT Inhibitory activity (% inhibition)

T1 sequence (P05067 672-711 limits assumed): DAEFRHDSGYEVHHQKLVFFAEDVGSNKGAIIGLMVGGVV

Compound | inhibition at 25 µM [1] | inhibition at 25 µM [2] | inhibition at 5 µM [3]
O=C(c1ccc(Cl)cc1)N1C[C@H](O)C[C@H]1c1nc(-c2ccc(OC(F)(F)F)cc2)no1 [Compound 34, (3R,5S)-1-(4-chlorobenzoyl)-5-{3-[4-(trifluoromethoxy)phenyl]-1,2,4-oxadiazol-5-yl}pyrrolidin-3-ol] | 40 to 80% | – | –
O=C(/C=C/c1ccc(F)cc1)N[C@@H](CO)c1nc(-c2ccc(C(F)(F)F)cc2)no1 [Compound 208, (2E)-3-(4-fluorophenyl)-N-[(1S)-2-hydroxy-1-{3-[4-(trifluoromethyl)phenyl]-1,2,4-oxadiazol-5-yl}ethyl]prop-2-enamide] | 40 to 80% | – | –
O=C(N[C@@H](CO)c1nc(-c2ccc(C(F)(F)F)cc2)no1)c1c(F)cccc1F [Compound 197, 2,6-difluoro-N-[(1S)-2-hydroxy-1-{3-[4-(trifluoromethyl)phenyl]-1,2,4-oxadiazol-5-yl}ethyl]benzamide] | 40 to 80% | 70% | –
O=C(N[C@@H](CO)c1nc(-c2ccc(C(F)F)cc2)no1)c1ccc(F)cc1 [Compound 166, N-[(1S)-1-{3-[4-(difluoromethyl)phenyl]-1,2,4-oxadiazol-5-yl}-2-hydroxyethyl]-4-fluorobenzamide] | 40 to 80% | – | –
O=C1CC(c2nc(-c3ccc(F)cc3)no2)CN1c1ccc(Cl)cc1 (stereo not drawn) [Compound 61, 1-(4-chlorophenyl)-4-{3-(4-fluorophenyl)-1,2,4-oxadiazol-5-yl} pyrrolidin-2-one] | 40 to 80% | – | –
O=C(Nc1nc(-c2ccc(C(F)(F)F)cc2)no1)c1ccccc1 [Compound 174, N-{3-[4-(trifluoromethyl)phenyl]-1,2,4-oxadiazol-5-yl} benzamide] | < 40% | – | –
CS(=O)(=O)Nc1ccc(-c2nnc([C@@H](N)Cc3c[nH]c4ccccc34)o2)cc1 [Compound 111, (S)-N-(4-(5-(1-amino-2-(1H-indol-3-yl)ethyl)-1,3,4-oxadiazol-2-yl)phenyl) methane-sulfonamide hydrochloride] | < 40% | – | –
NCC(NC(=O)c1ccc(Cl)cc1)c1nnc(-c2ccc(OC(F)(F)F)cc2)o1 (stereo not drawn) [Compound 116, N-(2-amino-1-{5-[4-(trifluoromethoxy)phenyl]-1,3,4-oxadiazol-2-yl}ethyl)-4-chlorobenzamide] | > 80% | – | –
O=C1CC(c2nc(-c3cccc(OC(F)(F)F)c3)no2)CN1c1ccc(Cl)cc1 (stereo not drawn) [Compound 33] | 40 to 80% | – | –
O=C(N[C@@H](CO)c1nc(-c2ccccc2C(F)(F)F)no1)c1ccccc1 [Compound 189, N-[(1S)-2-hydroxy-1-{3-[2-(trifluoromethyl)phenyl]-1,2,4-oxadiazol-5-yl}ethyl]benzamide] | 40 to 80% | – | –
CC(=O)c1ccc(-c2noc([C@H](CO)NC(=O)c3ccccc3)n2)cc1 [Compound 153, N-[(1S)-1-[3-(4-acetylphenyl)-1,2,4-oxadiazol-5-yl]-2-hydroxyethyl] benzamide] | 40 to 80% | 76% | –
O=C(N[C@@H](CO)c1nc(-c2csc(Cl)c2)no1)c1ccc(F)cc1 [Compound 227] | 40 to 80% | – | –
O=C(N[C@@H](CO)c1nc(-c2cc3ccccc3[nH]2)no1)c1ccc(F)cc1 [Compound 266, 4-fluoro-N-[(1S)-2-hydroxy-1-[3-(1H-indol-2-yl)-1,2,4-oxadiazol-5-yl]ethyl] benzamide] | > 80% | – | –
Cn1cc(-c2noc([C@H](CO)NC(=O)c3ccc(F)cc3)n2)c2ccccc21 [Compound 245, 4-fluoro-N-[(1S)-2-hydroxy-1-[3-(1-methyl-1H-3-yl)-1,2,4-oxadiazol-5-yl]ethyl]benzamide] | 40 to 80% | – | –
O=C1CC(c2nc(-c3ccc(OC(F)(F)F)cc3)no2)CN1c1cncc(Cl)c1 (stereo not drawn) [Compound 51, 1-(5-chloropyridin-3-yl)-4-[3-{4-(trifluoro-methoxy)phenyl}-1,2,4-oxadiazol-5-yl]pyrrolidin-2-one] | < 40% | – | –
O=C1CC[C@@H](c2nc(-c3ccc(OC(F)(F)F)cc3)no2)N1C(=O)c1ccc(Cl)cc1 [Compound 84, (S)-1-(4-chloro-benzoyl)-5-[3-{4-(trifluoromethoxy)phenyl}-1,2,4-oxadiazol-5-yl]pyrrolidin-2-one] | 40 to 80% | – | –
Nc1n[nH]cc1-c1noc([C@H](CO)NC(=O)c2ccc(F)cc2)n1 [Compound 257, N-[(1S)-1-[3-(3-amino-1H-pyrazol-4-yl)-1,2,4-oxadiazol-5-yl]-2-hydroxyethyl]-4-fluorobenzamide] | 40 to 80% | – | –
O=C(Nc1ccc(Cl)cc1)N[C@@H](CO)c1nc(-c2ccc(OC(F)(F)F)cc2)no1 [Compound 95, (S)-1-(4-chloro-phenyl)-3-(2-hydroxy-1-[3-{4-(trifluoromethoxy)phenyl}-1,2,4-oxadiazol-5-yl]ethyl)urea] | < 40% | – | –
O=C1CC(CO)(c2nc(-c3ccc(O)cc3)no2)CN1c1ccc(Cl)cc1 (stereo not drawn) [Compound 72, 1-(4-chloro-phenyl)-4-(hydroxy-methyl)-4-{3-(4-hydroxyphenyl)-1,2,4-oxadiazol-5-yl} pyrrolidin-2-one] | > 80% | 81% | 47%
O=C(N[C@@H](CO)c1nc(-c2ccc(C(F)(F)F)cc2)no1)C1CNc2ccccc2O1 (stereo partly drawn) [Compound 192, N-[(1S)-2-hydroxy-1-{3-[4-(trifluoromethyl)phenyl]-1,2,4-oxadiazol-5-yl}ethyl]-3,4-dihydro-2H-1,4-benzoxazine-2-carboxamide] | > 80% | – | –
O=C(N[C@@H](CO)c1nc(-c2ccc(Cl)o2)no1)c1ccc(F)cc1 [Compound 228, N-[(1S)-1-[3-(5-chlorofuran-2-yl)-1,2,4-oxadiazol-5-yl]-2-hydroxyethyl]-4-fluorobenzamide] | < 40% | – | –
O=C(N[C@H](CO)c1nnc(-c2ccc(OC(F)(F)F)cc2)o1)c1ccc(Cl)cc1 [Compound 107, (R)-4-chloro-N-(2-hydroxy-1-(5-(4-(trifluoro-methoxy)phenyl)-1,3,4-oxzdiazol-2-yl)ethyl)benzamide] | 40 to 80% | – | –
O=C(c1cccc(Cl)c1)N1C[C@H](O)C[C@H]1c1nc(-c2ccc(OC(F)(F)F)cc2)no1 [Compound 58, (3-chlorophenyl) ((2S,4R)-4-hydroxy-2-[3-{4-(trifluoro-methoxy)phenyl}-1,2,4-oxadiazol-5-yl]pyrrolidin-1-yl)methanone] | 40 to 80% | – | –
O=C(N[C@@H](CO)c1nc(-c2cccc(C(F)(F)F)c2)no1)c1ccc(N2CCOCC2)cc1 [Compound 220] | > 80% | – | –
O=C1CC(c2nc(-c3ccncc3)no2)CN1c1ccc(Cl)cc1 (stereo not drawn) [Compound 44, 1-(4-chlorophenyl)-4-{3-(pyridin-4-yl)-1,2,4-oxadiazol-5-yl} pyrrolidin-2-one] | < 40% | – | –
O=C(N[C@@H](CO)c1nc(-c2ccc(F)cc2Cl)no1)c1ccc(F)cc1 [Compound 219, N-[(1S)-1-[3-(2-chloro-4-fluorophenyl)-1,2,4-oxadiazol-5-yl]-2-hydroxyethyl]-4-fluorobenzamide] | < 40% | – | –
COc1ccc(-c2noc([C@H](CO)NC(=O)c3ccc(Cl)cc3)n2)cc1 [Compound 125, (S)-4-chloro-N-(2-hydroxy-1-(3-(4-methoxyphenyl)-1,2,4-oxadiazol-5-yl)ethyl)benzamide] | > 80% | 88% | 59%
